For 24 compounds, MIC results are on record in patent US8044204B2, “8-methoxy-9H-isothiazolo[5,4-b]quinoline-3,4-diones and related compounds as anti-infective agents” (Achillion Pharmaceuticals, Inc., priority 2005, dated 2011).

Holding throughout (assay type): cell-based
One assay concerns S. aureus ATCC 29213. Description: Minimum Inhibitory Concentration (MIC) assay, S. aureus. Conditions: Staphylococcus aureus, ATCC29213; broth microdilution; read-out: MIC against S. Aureus. On the procedure:
(§1) The antimicrobial activity of the compounds of the invention may be evaluated by a number of methods, including the following visual minimum inhibitory concentration (MIC) assay. This assay determines the minimum concentration of compound required to inhibit growth of a bacterial strain.
(§2) Minimum Inhibitory Concentration (MIC) Assay
(§3) Whole-cell antibacterial activity is determined by broth microdilution using conditions recommended by the NCCLS (see National Committee for Clinical Laboratory Standards. 2001. Performance standards for antimicrobial susceptibility testing: 11th informational supplement. Vol. 21, no. 1, M100-S11. National Committee for Clinical Laboratory Standards, Wayne, Pa.). Test compounds are dissolved in DMSO and diluted 1:50 in Mueller-Hinton II broth (Becton-Dickinson) to produce a 256 μg/ml stock solution. In a 96-well microtiter plate, the compound solution is serially two-fold diluted in Mueller-Hinton II broth. After the compounds are diluted, a 50 μl aliquot of the test organism (˜1×10^6 cfu/mL) is added to each well of the microtiter plate. The final test concentrations ranges from 0.125-128 μg/mL. Inoculated plates are incubated in ambient air at 37° C. for 18 to 24 hours. The organisms selected for testing included laboratory strains S. aureus ATCC 29213 and E. coli ATCC 25922 (strains purchased from American Type Culture Collection, Manassas, Va.), S. aureus FQR700699, and Paeruginosa 27853. The minimum inhibitory concentration (MIC) is determined as the lowest concentration of compound that inhibited visible growth of the test organism.

For a further assay, the system named is MRSA strain ATCC 700699. Nature of the assay: Minimum Inhibitory Concentration (MIC) assay, Methicillin Resistant S. Aureus. Conditions: Staphylococcus aureus; broth microdilution; read-out: MIC against Methicillin Resistant S. Aureus.
From the text: It has been unexpectedly discovered that substitution of compounds of Formula I and Formula II with a methoxy substituent at the R8 position increases the anti-microbial activity of the compound against Methicillin resistant Staphylococcus Aureus bacteria while at the same time decreasing the cellular toxicity of the compound. The simultaneous increase in compound activity and decrease in compound toxicity provides a greater therapeutic range for compounds of Formula I and Formula II in which R8 is methoxy; i.e. the range of doses of such compounds that will produce beneficial effects without harmful side effects is increased. […] Therapeutic range is determined using a standard assay of cytotoxicity such as the Alamar blue assay provided in Example 10.
as §1, §2, §3
A general note: In broth dilution the organism is exposed to a series of concentrations in liquid medium.

Another assay deals with E. coli ATCC 25922. Nature of the assay: Minimum Inhibitory Concentration (MIC) assay, E. coli. Conditions: Escherichia coli, ATCC25922; broth microdilution; read-out: MIC against E. coli. On the procedure: as §1, §2, §3

As for `COc1c(N2CC[C@@H](C(C)NC(C)C)C2)c(F)cc2c(=O)c3c(=O)[nH]sc3n(C3CC3)c12` (stereo partly drawn) [Compound 112, (R)-9-cyclo-propyl-6-fluoro-7-(3-(1-(isopropyl-amino)ethyl)pyrrolidin-1-yl)-8-methoxyiso-thiazolo[5,4-b]quinoline-3,4(2H,9H)-dione], the MIC with S. aureus ATCC 29213 and in the assay with MRSA strain ATCC 700699 was no more than 1 µg/mL in each case.
For the compound `CC[C@@H](NC)[C@@H]1CCN(c2c(F)cc3c(=O)c4c(=O)[nH]sc4n(C4CC4)c3c2OC)C1` [Compound 92, 9-cyclopropyl-6-fluoro-8-methoxy-7-((R)-3-((R)-1-(methylamino)-propyl)pyrrolidin-1-yl)isothia-zolo[5,4-b]quinoline-3,4(2H,9H)-dione], the MIC with S. aureus ATCC 29213 and in the assay with MRSA strain ATCC 700699 was no more than 1 µg/mL in each case.
In the case of `CN[C@H](C)[C@@H]1CCN(c2c(F)cc3c(=O)c4c(=O)[nH]sc4n(C4CC4)c3c2OC)C1` [Compound 107, 9-cyclopropyl-6-fluoro-8-methoxy-7-((R)-3-((R)-1-(methyl-amino)ethyl)pyrrolidin-1-yl)isothia-zolo[5,4-b]quinoline-3,4(2H,9H)-dione], the MIC with S. aureus ATCC 29213 and in the assay on MRSA strain ATCC 700699 was no more than 1 µg/mL in each case.
For the compound `O=c1[nH]sc2c1c(=O)c1cc(F)c(N3CCN(CCN4CCOCC4)CC3)cc1n2C1CC1` [Compound 33, 9-cyclopropyl-6-fluoro-7-(4-(2-morpho-linoethyl)piperazin-1-yl)isothia-zolo[5,4-b]quinoline-3,4(2H,9H)-dione], the MIC with S. aureus ATCC 29213 and with E. coli ATCC 25922 was no more than 1 µg/mL each time.
In the case of `O=c1[nH]sc2c1c(=O)c1cc(F)c(N3CCNCC3)cc1n2C1CC1` [Compound 20, 9-cyclopropyl-6-fluoro-7-(piperazin-1-yl)isothia-zolo[5,4-b]quinoline-3,4(2H,9H)-dione], the minimal inhibitory concentration (MIC) in the assay on S. aureus ATCC 29213 and in the assay on E. coli ATCC 25922 was no more than 1 µg/mL in each case.
For the compound `CC(C)(C)OC(=O)N1CCN(c2cc3c(cc2F)c(=O)c2c(=O)[nH]sc2n3C2CC2)CC1` [Compound 26, tert-butyl 4-(9-cyclopropyl-6-fluoro-3,4-dioxo-2,3,4,9-tetrahydroiso-thiazolo[5,4-b]quinolin-7-yl)piperazine-1-carboxylate], the MIC in the assay with S. aureus ATCC 29213 and in the assay with E. coli ATCC 25922 was no more than 1 µg/mL throughout.
For `CC1CN(c2cc3c(cc2F)c(=O)c2c(=O)[nH]sc2n3C2CC2)CCN1` (stereo not drawn) [Compound 17, 9-cyclopropyl-6-fluoro-7-(3-methyl-piperazin-1-yl)isothia-zolo[5,4-b]quinoline-3,4(2H,9H)-dione], the MIC in the assay on S. aureus ATCC 29213 and with E. coli ATCC 25922 was no more than 1 µg/mL throughout.
With `CC(=O)N1CCN(c2cc3c(cc2F)c(=O)c2c(=O)[nH]sc2n3C2CC2)CC1` [Compound 44, 7-(4-acetyl-piperazin-1-yl)-9-cyclo-propyl-6-fluoroiso-thiazolo[5,4-b]quinoline-3,4(2H,9H)-dione], the MIC in the assay with S. aureus ATCC 29213 and with E. coli ATCC 25922 was no more than 1 µg/mL throughout.
`CC(C)(C)OC(=O)NC1CCN(c2cc3c(cc2F)c(=O)c2c(=O)[nH]sc2n3C2CC2)C1` (stereo not drawn) [Compound 27, tert-butyl 1-(9-cyclopropyl-6-fluoro-3,4-dioxo-2,3,4,9-tetrahydroiso-thiazolo[5,4-b]quinolin-7-yl)pyrrolidin-3-ylcarbamate]: the minimal inhibitory concentration (MIC) with S. aureus ATCC 29213 and in the assay with E. coli ATCC 25922 was no more than 1 µg/mL each time.
Regarding `O=c1[nH]sc2c1c(=O)c1cc(F)c(N3CCN(CCN4CCCC4)CC3)cc1n2C1CC1` [Compound 30], the MIC with S. aureus ATCC 29213 and with E. coli ATCC 25922 was no more than 1 µg/mL in each case.
For `COc1c(N2C[C@H]3CCCN[C@H]3C2)ccc2c(=O)c3c(=O)[nH]sc3n(C3CC3)c12` [Compound 78, 9-cyclopropyl-8-methoxy-7-((4aR,7aR)octahydro-pyrrolo[3,4-b]pyridin-6-yl)isothia-zolo[5,4-b]quinoline-3,4(2H,9H)-dione], the MIC in the assay on S. aureus ATCC 29213 and in the assay on E. coli ATCC 25922 was no more than 1 µg/mL throughout.
For the compound `CNC(C)(C)[C@@H]1CCN(c2ccc3c(=O)c4c(=O)[nH]sc4n(C4CC4)c3c2OC)C1` [Compound 79, (R)-9-cyclo-propyl-8-methoxy-7-(3-(2-(methyl-amino)propan-2-yl)pyrrolidin-1-yl)isothia-zolo[5,4-b]quinoline-3,4(2H,9H)-dione], the MIC with S. aureus ATCC 29213 and in the assay with E. coli ATCC 25922 was no more than 1 µg/mL in each case.
As to `COc1c(N2CC[C@@H](C(C)N(C)C)C2)c(F)cc2c(=O)c3c(=O)[nH]sc3n(C3CC3)c12` (stereo partly drawn) [Compound 81, (R)-9-cyclo-propyl-7-(3-(1-(di-methylamino)ethyl)pyrrolidin-1-yl)-6-fluoro-8-methoxyiso-thiazolo[5,4-b]quinoline-3,4(2H,9H)-dione], the minimal inhibitory concentration (MIC) in the assay with S. aureus ATCC 29213 and with E. coli ATCC 25922 was no more than 1 µg/mL each time.
As for `CCn1c2cc(N3CCC(N(C)C)C3)c(F)cc2c(=O)c2c(=O)[nH]sc21` (stereo not drawn) [Compound 34, 7-(3-(dimethyl-amino)pyrrolidin-1-yl)-9-ethyl-6-fluoroisothia-zolo[5,4-b]quinoline-3,4(2H,9H)-dione], the MIC in the assay with S. aureus ATCC 29213 and in the assay on E. coli ATCC 25922 was no more than 1 µg/mL in each case.
As to `COc1c(N2CC[C@@H](CN(C)C)C2)c(F)cc2c(=O)c3c(=O)[nH]sc3n(C3CC3)c12` [Compound 86, (S)-9-cyclo-propyl-7-(3-((dimethyl-amino)methyl)pyrrolidin-1-yl)-6-fluoro-8-methoxyiso-thiazolo[5,4-b]quinoline-3,4(2H,9H)-dione], the MIC with S. aureus ATCC 29213 and in the assay on E. coli ATCC 25922 was no more than 1 µg/mL in each case.
For the compound `O=c1[nH]sc2c1c(=O)c1cc(F)c(N3CCC(O)C3)cc1n2C1CC1` (stereo not drawn) [Compound 18, 9-cyclopropyl-6-fluoro-7-(3-hydroxy-pyrrolidin-1-yl)isothia-zolo[5,4-b]quinoline-3,4(2H,9H)-dione], the minimal inhibitory concentration (MIC) with S. aureus ATCC 29213 and with E. coli ATCC 25922 was no more than 1 µg/mL in each case.
Regarding `CCn1c2cc(N3CCNCC3)c(F)cc2c(=O)c2c(=O)[nH]sc21` [Compound 31, 9-ethyl-6-fluoro-7-(piperazin-1-yl)isothia-zolo[5,4-b]quinoline-3,4(2H,9H)-dione], the MIC in the assay on S. aureus ATCC 29213 and with E. coli ATCC 25922 was no more than 1 µg/mL in each case.
On to `CN(C)CCN1CCN(c2cc3c(cc2F)c(=O)c2c(=O)[nH]sc2n3C2CC2)CC1` [Compound 32, 9-cyclopropyl-7-(4-(2-(dimethyl-amino)ethyl)piperazin-1-yl)-6-fluoroiso-thiazolo[5,4-b]quinoline-3,4(2H,9H)-dione], for which the minimal inhibitory concentration (MIC) in the assay with S. aureus ATCC 29213 and in the assay with E. coli ATCC 25922 was no more than 1 µg/mL throughout.
As to `CN(C)C1CCN(c2cc3c(cc2F)c(=O)c2c(=O)[nH]sc2n3C2CC2)C1` (stereo not drawn) [Compound 22, 9-cyclopropyl-7-(3-(dimethyl-amino)pyrrolidin-1-yl)-6-fluoroiso-thiazolo[5,4-b]quinoline-3,4(2H,9H)-dione], the minimum inhibitory concentration (MIC) in the assay on S. aureus ATCC 29213 and with E. coli ATCC 25922 was no more than 1 µg/mL each time.
As for `COc1c(N2CC[C@@H](CNC3CC3)C2)ccc2c(=O)c3c(=O)[nH]sc3n(C3CC3)c12` [Compound 101, (S)-9-cyclo-propyl-7-(3-((cyclopropyl-amino)methyl)-pyrrolidin-1-yl)-8-methoxyiso-thiazolo[5,4-b]quinoline-3,4(2H,9H)-dione], the minimum inhibitory concentration (MIC) with S. aureus ATCC 29213 and in the assay on E. coli ATCC 25922 was no more than 1 µg/mL in each case.
For `O=c1[nH]sc2c1c(=O)c1cc(F)c(N3CCC(O)CC3)cc1n2C1CC1` [Compound 41, 9-cyclopropyl-6-fluoro-7-(4-hydroxy-piperidin-1-yl)isothia-zolo[5,4-b]quinoline-3,4(2H,9H)-dione], the MIC in the assay with S. aureus ATCC 29213 and with E. coli ATCC 25922 was no more than 1 µg/mL in each case.
With `O=C1CCN(c2cc3c(cc2F)c(=O)c2c(=O)[nH]sc2n3C2CC2)CC1` [Compound 40, 9-cyclopropyl-6-fluoro-7-(4-oxo-piperidin-1-yl)isothia-zolo[5,4-b]quinoline-3,4(2H,9H)-dione], the MIC in the assay on S. aureus ATCC 29213 and in the assay with E. coli ATCC 25922 was no more than 1 µg/mL in each case.
Take `O=c1[nH]sc2c1c(=O)c1cc(F)c(NCCN3CCOCC3)cc1n2C1CC1` [Compound 29, 9-cyclopropyl-6-fluoro-7-(2-morpholino-ethyl-amino)iso-thiazolo[5,4-b]quinoline-3,4(2H,9H)-dione]: the MIC in the assay on S. aureus ATCC 29213 and with E. coli ATCC 25922 was no more than 1 µg/mL each time.
For `CCNC1CN(c2c(F)cc3c(=O)c4c(=O)[nH]sc4n(C4CC4)c3c2OC)C1` [Compound 106, 9-cyclopropyl-7-(3-(ethylamino)-azetidin-1-yl)-6-fluoro-8-methoxyiso-thiazolo[5,4-b]quinoline-3,4(2H,9H)-dione], the MIC in the assay with S. aureus ATCC 29213 and with E. coli ATCC 25922 was no more than 1 µg/mL throughout.

By MIC is commonly meant the lowest concentration found to suppress growth.
